The target in this experiment is T1, human AR (androgen receptor) (Homo sapiens, UniProt P10275).
T1 construct: expressed in transfected cells; host or cells: HEK293 (lysate, 293-AR)
T1 sequence (P10275 1-920): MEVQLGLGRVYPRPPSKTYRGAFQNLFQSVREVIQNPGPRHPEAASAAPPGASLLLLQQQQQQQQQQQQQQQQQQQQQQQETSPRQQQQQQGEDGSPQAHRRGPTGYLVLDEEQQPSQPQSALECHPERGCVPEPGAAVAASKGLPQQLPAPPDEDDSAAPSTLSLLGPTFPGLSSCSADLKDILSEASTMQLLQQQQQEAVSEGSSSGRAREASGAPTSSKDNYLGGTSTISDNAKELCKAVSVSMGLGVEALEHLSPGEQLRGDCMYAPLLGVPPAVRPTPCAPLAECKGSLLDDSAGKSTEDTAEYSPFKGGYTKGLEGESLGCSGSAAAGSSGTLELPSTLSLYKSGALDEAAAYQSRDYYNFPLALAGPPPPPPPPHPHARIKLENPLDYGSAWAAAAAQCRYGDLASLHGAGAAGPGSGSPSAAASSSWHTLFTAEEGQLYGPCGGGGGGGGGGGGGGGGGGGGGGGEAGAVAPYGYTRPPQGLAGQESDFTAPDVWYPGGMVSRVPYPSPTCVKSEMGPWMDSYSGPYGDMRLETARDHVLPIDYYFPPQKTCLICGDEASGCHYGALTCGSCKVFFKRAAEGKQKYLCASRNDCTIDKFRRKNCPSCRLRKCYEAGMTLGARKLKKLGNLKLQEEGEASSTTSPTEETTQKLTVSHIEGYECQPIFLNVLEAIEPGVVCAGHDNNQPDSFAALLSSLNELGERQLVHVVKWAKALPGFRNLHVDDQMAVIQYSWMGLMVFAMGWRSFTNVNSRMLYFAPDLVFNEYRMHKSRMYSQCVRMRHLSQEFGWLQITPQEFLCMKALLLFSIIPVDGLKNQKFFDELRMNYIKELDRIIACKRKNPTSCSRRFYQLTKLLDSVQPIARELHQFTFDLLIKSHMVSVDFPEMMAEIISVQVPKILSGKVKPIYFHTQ
In words: Steroid hormone nuclear receptor binding assay, AR. To be noted: HEK293 lysate overexpressing human AR, [3H]-methyltrienolone. The procedure: Cell lysates from human embryonic kidney HEK293 cells overexpressing human MR (mineralocorticoid receptor), GR (glucocorticoid receptor), AR (androgen receptor), or PR (progesterone receptor) are used for receptor-ligand competition binding assays to determine Ki values. Typical procedures are provided below
Briefly, steroid receptor competition binding assays are run in a buffer containing 20 mM HEPES buffer (pH=7.6), 0.2 mM EDTA, 75 mM NaCl, 1.5 mM MgCl2, 20% glycerol, 20 mM sodium molybdate, 0.2 mM DTT (dithiothreitol), 20 μg/mL aprotinin and 20 μg/mL leupeptin (assay buffer). […] Assays are typically run in 96-well format. Competing test compounds are added at various concentrations ranging from about 0.01 nM to 10 μM. Non-specific binding is determined in the presence of 500 nM aldosterone for MR binding, 500 nM dexamethasone for GR binding, or 500 nM methyltrienolone for AR and PR binding. The binding reactions (140 μL) are incubated overnight at 4° C., then 70 μL of cold charcoal-dextran buffer (containing per 50 mL of assay buffer, 0.75 g of charcoal and 0.25 g of dextran) is added to each reaction. […] After an incubation of 2 hours, plates are read in a Wallac Microbeta counter.
The Kd for [^3H]-aldosterone for MR binding, [^3H]-dexamethasone for GR binding, [^3H]-methyltrienolone for AR binding, or [^3H]-methyltrienolone for PR binding, is determined by saturation binding. […]

The Ki is a measure of affinity in units of concentration, obtained from inhibition or displacement. Read a high Ki as weaker binding.

SMILES strings stand for the structures.

The compound `CC(C)OC(=O)N[C@H]1Cc2c(n(C[C@H]3OCC[C@@H]3O)c3ccc(C#N)cc23)C1` [compound of Formula (I), [(S)-7-Cyano-4-((2R,3S)-3-hydroxytetrahydrofuran-2-ylmethyl)-1,2,3,4-tetrahydrocyclopenta[b]indol-2-yl]-carbamic acid isopropyl ester] displayed an inhibition constant Ki of around 10 nM.
